Drawing on patent publication US5024994A, “Renin inhibitors IV” (Warner-Lambert Company, priority 1988, dated 1991), this text covers IC50 and inhibition for 49 molecules.

By IC50 is commonly meant the point on the concentration scale where inhibition reaches its midpoint. Usually inhibition stands for the change of the read-out against control, counted positive when it falls.

Molecules are shown by their SMILES.

For the first assay, the target named is T1, renin (Homo sapiens, UniProt P00797).
T1 sequence (P00797 67-406): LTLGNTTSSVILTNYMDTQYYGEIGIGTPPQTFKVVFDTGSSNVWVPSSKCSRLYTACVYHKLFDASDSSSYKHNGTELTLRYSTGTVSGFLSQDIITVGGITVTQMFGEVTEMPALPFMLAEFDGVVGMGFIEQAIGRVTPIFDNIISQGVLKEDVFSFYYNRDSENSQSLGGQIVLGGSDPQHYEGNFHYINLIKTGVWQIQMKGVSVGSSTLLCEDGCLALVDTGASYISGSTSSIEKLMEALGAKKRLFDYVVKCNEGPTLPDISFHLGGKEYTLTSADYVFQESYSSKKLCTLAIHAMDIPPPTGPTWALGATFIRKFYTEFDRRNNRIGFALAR
Nature of the assay: in vitro renin inhibitory activity, radioimmunoassay for angiotensin I. Format: biochemical.
Settings: not given
As for the experimental part: The effectiveness of the aforementioned compounds is determined by a test for in vitro renin inhibitory activity. This activity is determined by a standard radioimmunoassay for angiotensin I. In this assay the enzyme, renin, incubated for two hours at 37° in the presence of a substrate, angiotensinogen, generates the product, angiotensin I. Test compounds are added to the incubation mixture.
In the case of `CCC(C)CNC(=O)C[C@H](O)[C@H](CC(C)C)NC(=O)[C@H](CCCCNP(=O)(Oc1ccccc1)Oc1ccccc1)NC(=O)C(Cc1cccc2ccccc12)Cc1cccc2ccccc12` (stereo partly shown), the IC50 was determined as 7400 nM.

Regarding `CCC(C)CNC(=O)C[C@H](O)[C@H](CC(C)C)NC(=O)[C@H](CCCCNC(=NC#N)SC)NC(=O)C(Cc1cccc2ccccc12)Cc1cccc2ccccc12` (stereo partly shown), the IC50 came to 19 nM.

Consider `CC[C@H](C)CNC(=O)C[C@H](O)[C@H](CC(C)C)NC(=O)[C@H](CCCCn1cccc1)NC(=O)C(Cc1cccc2ccccc12)Cc1cccc2ccccc12`, for which the IC50 was determined as 87 nM.

`CC(C)C[C@H](NC(=O)C[C@H](O)[C@H](CC(C)C)NC(=O)[C@H](CCCCNC(=N)N[N+](=O)[O-])NC(=O)C(Cc1cccc2ccccc12)Cc1cccc2ccccc12)C(=O)NCc1ccccc1` registered a 50% inhibitory concentration (IC50) of 15 nM.

In the case of `CNC(=S)NCCCC[C@H](NC(=O)C(Cc1cccc2ccccc12)Cc1cccc2ccccc12)C(=O)N[C@@H](CC(C)C)[C@@H](O)CC(=O)N[C@@H](CC(C)C)C(=O)NCc1ccccc1`, the 50% inhibitory concentration (IC50) stood at 60 nM.

`CCC(C)CNC(=O)C[C@H](O)[C@H](CC(C)C)NC(=O)C(CCCCCNC(=N)N[N+](=O)[O-])NC(=O)C(Cc1cccc2ccccc12)Cc1cccc2ccccc12` (stereo partly shown) yielded an IC50 of 26 nM.

In turn, `CC(C)C[C@H](NC(=O)C[C@H](O)[C@H](CC(C)C)NC(=O)C(CCCCCNC(=N)N[N+](=O)[O-])NC(=O)C(Cc1cccc2ccccc12)Cc1cccc2ccccc12)C(=O)NCc1ccccc1` (stereo partly shown) registered an IC50 of 110 nM.

Consider `CC[C@H](C)CNC(=O)C[C@H](O)[C@H](CC(C)C)NC(=O)C(CCCCCCNC(=S)NC)NC(=O)C(Cc1cccc2ccccc12)Cc1cccc2ccccc12` (stereo partly shown), for which the 50% inhibitory concentration (IC50) came out at 45 nM.

As to `CC[C@H](C)CNC(=O)C[C@H](O)[C@H](CC(C)C)NC(=O)C(CC#CCNC(=O)OCc1ccccc1)NC(=O)C(Cc1cccc2ccccc12)Cc1cccc2ccccc12` (stereo partly shown), the 50% inhibitory concentration (IC50) came to 150 nM.

Molecule `CC[C@H](C)CNC(=O)C[C@H](O)[C@H](CC(C)C)NC(=O)C(NC(=O)C(Cc1cccc2ccccc12)Cc1cccc2ccccc12)C(=O)OC` (stereo partly shown) displayed a 50% inhibitory concentration (IC50) of 23 nM.

For `CCC(C)CNC(=O)C[C@H](O)[C@H](CC(C)C)NC(=O)C(NC(=O)C(CC(=O)N1CCOCC1)Cc1cccc2ccccc12)C(=O)OC` (stereo partly shown), the IC50 is 98 nM.

On to `CNC(=S)NCCCC[C@H](NC(=O)C(Cc1ccccc1)CS(=O)(=O)C(C)(C)C)C(=O)N[C@@H](CC1CCCCC1)[C@@H](O)CC(=O)NCCN1CCOCC1` (stereo partly shown), for which the half-maximal inhibitory concentration (IC50) worked out at 27 nM.

`CCC(C)CNC(=O)C[C@H](O)[C@H](CC(C)C)NC(=O)C(C/C=C/CNC(=S)NC)NC(=O)C(Cc1cccc2ccccc12)Cc1cccc2ccccc12` (stereo partly shown) gave a half-maximal inhibitory concentration (IC50) of 41 nM.

On to `CC[C@H](C)CNC(=O)C[C@H](O)[C@H](CC(C)C)NC(=O)C(NC(=O)[C@H](Cc1ccccc1)NC(=O)OC(C)(C)C)C(=O)N1CCCC1` (stereo partly shown), for which the half-inhibitory concentration (IC50) came out at 400 nM.

Regarding `CCC(C)CNC(=O)C[C@H](O)[C@H](CC(C)C)NC(=O)[C@H](CC#N)NC(=O)[C@H](Cc1ccccc1)NC(=O)OC(C)(C)C` (stereo partly shown), the IC50 came to 260 nM.

The assay is the same for the next values; noted with them: at 10^-6 molar concentration; read-out: percent inhibition of renin activity.
Consider `CC[C@H](C)CNC(=O)C[C@H](O)[C@H](CC(C)C)NC(=O)C(CCCCCCNC(=O)OCc1ccccc1)NC(=O)C(Cc1cccc2ccccc12)Cc1cccc2ccccc12` (stereo partly shown), for which the inhibition at 1 µM was 28%.

Turning to `CC[C@H](C)CNC(=O)C[C@H](O)[C@H](CC(C)C)NC(=O)C(NC(=O)C(Cc1cccc2ccccc12)Cc1cccc2ccccc12)C(N)=O` (stereo partly shown), the inhibition at 1 µM stood at 24%.

With `CC[C@H](C)CNC(=O)C[C@H](O)[C@H](CC(C)C)NC(=O)C(NC(=O)C(Cc1cccc2ccccc12)Cc1cccc2ccccc12)C(=O)NC` (stereo partly shown), the inhibition at 1 µM turned out to be 26%.

Still in this assay, the particulars now being: read-out: IC50.
Take `CC[C@H](C)CNC(=O)C[C@H](O)[C@H](CC(C)C)NC(=O)[C@H](CCCCNC(=S)NC)NC(=O)C(Cc1cccc2ccccc12)Cc1cccc2ccccc12`: the IC50 is 9.6 nM.

For the molecule `CCC(C)CNC(=O)C[C@H](O)[C@H](CC(C)C)NC(=O)[C@H](CCCCNC(=O)NC)NC(=O)C(Cc1cccc2ccccc12)Cc1cccc2ccccc12` (stereo partly shown), the IC50 is 29 nM.

Consider `CCCCNC(=S)NCCCC[C@H](NC(=O)C(Cc1cccc2ccccc12)Cc1cccc2ccccc12)C(=O)N[C@@H](CC(C)C)[C@@H](O)CC(=O)NC[C@@H](C)CC`, for which the IC50 amounted to 46 nM.

Consider `CCCCNC(=S)NCCCC[C@H](NC(=O)C(Cc1cccc2ccccc12)Cc1cccc2ccccc12)C(=O)N[C@@H](CC(C)C)[C@@H](O)CC(=O)NCC(C)CC` (stereo partly shown), for which the concentration for half-maximal inhibition (IC50) turned out to be 58 nM.

For the molecule `CC[C@H](C)CNC(=O)C[C@H](O)[C@H](CC(C)C)NC(=O)[C@H](CCCCNC(=S)NCC(C)(C)C)NC(=O)C(Cc1cccc2ccccc12)Cc1cccc2ccccc12`, the half-inhibitory concentration (IC50) was 450 nM.

Consider `CCC(C)CNC(=O)C[C@H](O)[C@H](CC(C)C)NC(=O)[C@H](CCCCNC(=S)NC(C)(C)CC)NC(=O)C(Cc1cccc2ccccc12)Cc1cccc2ccccc12` (stereo partly shown), for which the 50% inhibitory concentration (IC50) came to 7.5 nM.

Regarding `CCC(C)CNC(=O)C[C@H](O)[C@H](CC1CCCCC1)NC(=O)[C@H](CCCCNC(=N)N[N+](=O)[O-])NC(=O)C(Cc1cccc2ccccc12)Cc1cccc2ccccc12` (stereo partly shown), the IC50 came out at 15 nM.

For the molecule `CCC(C)CNC(=O)C[C@H](O)[C@H](CC(C)C)NC(=O)[C@H](CCCCNC(N)=NC#N)NC(=O)C(Cc1cccc2ccccc12)Cc1cccc2ccccc12` (stereo partly shown), the IC50 amounted to 18 nM.

For the molecule `CCC(C)CNC(=O)C[C@H](O)[C@H](CC(C)C)NC(=O)[C@H](CCCCNC(=NC#N)NC)NC(=O)C(Cc1cccc2ccccc12)Cc1cccc2ccccc12` (stereo partly shown), the half-maximal inhibitory concentration (IC50) is 15 nM.

With `CCC(C)CNC(=O)C[C@H](O)[C@H](CC(C)C)NC(=O)[C@H](CCCCn1cccc1)NC(=O)C(Cc1cccc2ccccc12)Cc1cccc2ccccc12` (stereo partly shown), the IC50 turned out to be 540 nM.

Turning to `CNC(=O)NCCCC[C@H](NC(=O)C(Cc1cccc2ccccc12)Cc1cccc2ccccc12)C(=O)N[C@@H](CC(C)C)[C@@H](O)CC(=O)N[C@@H](CC(C)C)C(=O)NCc1ccccc1`, the IC50 was found to be 84 nM.

On to `CCC(C)CNC(=O)C[C@H](O)[C@H](CC(C)C)NC(=O)C(CCCCCNC(=O)OCc1ccccc1)NC(=O)C(Cc1cccc2ccccc12)Cc1cccc2ccccc12` (stereo partly shown), for which the IC50 was 290 nM.

For `CCC(C)CNC(=O)C[C@H](O)[C@H](CC(C)C)NC(=O)C(CCCCCNC(=S)NC)NC(=O)C(Cc1cccc2ccccc12)Cc1cccc2ccccc12` (stereo partly shown), the IC50 turned out to be 40 nM.

Regarding `CC[C@H](C)CNC(=O)C[C@H](O)[C@H](CC(C)C)NC(=O)C(CCCCCCNC(N)=NC#N)NC(=O)C(Cc1cccc2ccccc12)Cc1cccc2ccccc12` (stereo partly shown), the IC50 was 45 nM.

In the case of `CC(C)C[C@H](NC(=O)C[C@H](O)[C@H](CC(C)C)NC(=O)C(CCCCCCNC(=O)OCc1ccccc1)NC(=O)C(Cc1cccc2ccccc12)Cc1cccc2ccccc12)C(=O)NCc1ccccc1` (stereo partly shown), the concentration for half-maximal inhibition (IC50) was 59 nM.

In the case of `CC[C@H](C)CNC(=O)C[C@H](O)[C@H](CC(C)C)NC(=O)[C@H](CCCNC(=S)NC)NC(=O)C(Cc1cccc2ccccc12)Cc1cccc2ccccc12`, the half-maximal inhibitory concentration (IC50) was found to be 280 nM.

On to `CC[C@H](C)CNC(=O)C[C@H](O)[C@H](CC(C)C)NC(=O)[C@H](CCCNC(=O)NC)NC(=O)C(Cc1cccc2ccccc12)Cc1cccc2ccccc12`, for which the IC50 came to 890 nM.

Consider `CC[C@H](C)CNC(=O)C[C@H](O)[C@H](CC(C)C)NC(=O)[C@H](CCCCNC(N)=O)NC(=O)C(Cc1cccc2ccccc12)Cc1cccc2ccccc12`, for which the IC50 is 50 nM.

Regarding `CC[C@H](C)CNC(=O)C[C@H](O)[C@H](CC(C)C)NC(=O)C(NC(=O)[C@H](Cc1ccccc1)NC(=O)OC(C)(C)C)C(=O)OC` (stereo partly shown), the IC50 was determined as 41 nM.

`CC[C@H](C)CNC(=O)C[C@H](O)[C@H](CC(C)C)NC(=O)C(NC(=O)C(Cc1cccc2ccccc12)Cc1cccc2ccccc12)C(=O)NCCc1cnc[nH]1` (stereo partly shown): the IC50 is 3100 nM.

On to `CC[C@H](C)CNC(=O)C[C@H](O)[C@H](CC(C)C)NC(=O)C(NC(=O)C(Cc1cccc2ccccc12)Cc1cccc2ccccc12)C(=O)N(C)C` (stereo partly shown), for which the IC50 turned out to be 200 nM.

Consider `CC[C@H](C)CNC(=O)C[C@H](O)[C@H](CC(C)C)NC(=O)C(Cc1nc2ccccc2[nH]1)NC(=O)C(Cc1cccc2ccccc12)Cc1cccc2ccccc12` (stereo partly shown), for which the half-maximal inhibitory concentration (IC50) was 2800 nM.

Regarding `CC[C@H](C)CNC(=O)C[C@H](O)[C@H](CC(C)C)NC(=O)C(CC#N)NC(=O)[C@H](Cc1ccccc1)NC(=O)CC(C)C` (stereo partly shown), the IC50 was 570 nM.

Consider `CCOC(=O)C(NC(=O)C(Cc1cccc2ccccc12)Cc1cccc2ccccc12)C(=O)N[C@@H](CC(C)C)[C@@H](O)CC(=O)NC[C@@H](C)CC` (stereo partly shown), for which the IC50 was 23 nM.

With `CC[C@H](C)CNC(=O)C[C@H](O)[C@H](CC(C)C)NC(=O)C(CCCCCC(=O)NC)NC(=O)C(Cc1cccc2ccccc12)Cc1cccc2ccccc12` (stereo partly shown), the half-maximal inhibitory concentration (IC50) was found to be 1200 nM.

`CCC(C)CNC(=O)C[C@H](O)[C@H](CC(C)C)NC(=O)C(NC(=O)C(Cc1cccc2ccccc12)Cc1cccc2ccccc12)C(=O)OC(C)C` (stereo partly shown): the IC50 was found to be 33 nM.

Consider `CCC(C)CNC(=O)C[C@H](O)[C@H](CC(C)C)NC(=O)C(C/C=C\CNC(C)=O)NC(=O)C(Cc1cccc2ccccc12)Cc1cccc2ccccc12` (stereo partly shown), for which the half-inhibitory concentration (IC50) stood at 100 nM.

For the molecule `CC(C)(C)OC(=O)NCC#CCC(NC(=O)C(Cc1cccc2ccccc12)Cc1cccc2ccccc12)C(=O)N[C@@H](CC1CCCCC1)[C@@H](O)CC(=O)NCCN1CCOCC1` (stereo partly shown), the half-inhibitory concentration (IC50) worked out at 700 nM.

Consider `O=CNCC#CCC(NC(=O)C(Cc1cccc2ccccc12)Cc1cccc2ccccc12)C(=O)N[C@@H](CC1CCCCC1)[C@@H](O)CC(=O)NCCN1CCOCC1` (stereo partly shown), for which the IC50 amounted to 8 nM.

As for `CC(=O)NCC#CCC(NC(=O)C(Cc1cccc2ccccc12)Cc1cccc2ccccc12)C(=O)N[C@@H](CC1CCCCC1)[C@@H](O)CC(=O)NCCN1CCOCC1` (stereo partly shown), the half-inhibitory concentration (IC50) was found to be 8.6 nM.

As for `N=C(NCC#CCC(NC(=O)C(Cc1cccc2ccccc12)Cc1cccc2ccccc12)C(=O)N[C@@H](CC1CCCCC1)[C@@H](O)CC(=O)NCCN1CCOCC1)N[N+](=O)[O-]` (stereo partly shown), the concentration for half-maximal inhibition (IC50) worked out at 12 nM.
